Assay results published in US7994209B2, “3-phenoxymethylpyrrolidine compounds” (Theravance, Inc., priority 2009, dated 2011).

target: T1, hSERT (Homo sapiens, UniProt P31645); experiment: hSERT membrane radioligand binding assay (3H-citalopram), Assay 1; details: SERT pKi, hSERT HEK-293 membranes, 1.0 nM 3H-citalopram; values given as lower bounds
T1 sequence (P31645 whole entry): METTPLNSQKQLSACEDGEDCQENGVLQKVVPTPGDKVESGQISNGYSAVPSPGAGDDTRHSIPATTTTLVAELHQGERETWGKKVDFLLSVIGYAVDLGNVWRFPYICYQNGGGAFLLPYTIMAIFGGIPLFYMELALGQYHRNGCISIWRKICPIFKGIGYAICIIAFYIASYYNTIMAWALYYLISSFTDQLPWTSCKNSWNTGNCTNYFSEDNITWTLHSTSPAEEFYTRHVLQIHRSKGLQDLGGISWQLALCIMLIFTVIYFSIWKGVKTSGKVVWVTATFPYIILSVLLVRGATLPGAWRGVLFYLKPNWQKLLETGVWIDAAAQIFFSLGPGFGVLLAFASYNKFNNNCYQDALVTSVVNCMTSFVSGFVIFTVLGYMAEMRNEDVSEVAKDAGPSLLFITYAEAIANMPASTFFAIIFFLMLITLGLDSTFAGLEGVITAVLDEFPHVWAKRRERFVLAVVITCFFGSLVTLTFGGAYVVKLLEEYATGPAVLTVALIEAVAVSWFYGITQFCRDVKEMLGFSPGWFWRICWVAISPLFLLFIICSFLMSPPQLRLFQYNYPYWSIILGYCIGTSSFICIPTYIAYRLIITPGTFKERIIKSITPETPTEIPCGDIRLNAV

| Ki | SMILES |
| --- | --- |
| ≤ 10 nM | Cc1ccc(O[C@@H](C2CC2)[C@H]2CCNC2)c(F)c1F [Example 16-50, (S)-3-[(S)cyclopropyl-(2,3-difluoro-4-methylphenoxy)methyl]pyrrolidine] |
| ≤ 10 nM | Fc1ccc(O[C@@H](C2CC2)[C@H]2CCNC2)c(F)c1Cl [Example 16-53, (S)-3-[(S)-(3-Chloro-2,4-difluorophenoxy)cyclopropylmethyl]pyrrolidine] |
| ≤ 10 nM | COc1c(F)ccc(O[C@@H](C2CC2)[C@H]2CCNC2)c1F [Example 16-54, (S)-3-[(S)cyclopropyl-(2,4-difluoro-3-methoxyphenoxy)methyl]pyrrolidine] |
| ≤ 10 nM | COc1c(O[C@H](C2CC2)[C@H]2CCNC2)ccc(Cl)c1Cl [Example 16-56, (S)-3-[(R)cyclopropyl-(3,4-dichloro-2-methoxyphenoxy)methyl]pyrrolidine] |
| ≤ 10 nM | Cc1ccc(F)c(O[C@H](C2CC2)[C@H]2CCNC2)c1Cl [Example 16-63, (S)-3-[(R)-(2-Chloro-6-fluoro-3-methylphenoxy)cyclopropylmethyl]pyrrolidine] |
| ≤ 10 nM | Fc1ccc(Cl)c(F)c1O[C@@H](C1CC1)[C@H]1CCNC1 [Example 16-66, (S)-3-[(S)-(3-Chloro-2,6-difluorophenoxy)cyclopropylmethyl]pyrrolidine] |

More lines, now with the values behind:

| SMILES | Ki |
| --- | --- |
| Fc1c(Cl)ccc(O[C@@H](C2CC2)[C@H]2CCNC2)c1Cl [Example 16-52, (S)-3-[(S)cyclopropyl-(2,4-dichloro-3-fluorophenoxy)methyl]pyrrolidine] | ≤ 10 nM |
| Fc1ccc(Cl)c(Cl)c1O[C@@H](C1CC1)[C@H]1CCNC1 [Example 16-59, (S)-3-[(S)cyclopropyl-(2,3-dichloro-6-fluorophenoxy)methyl]pyrrolidine] | ≤ 10 nM |
| Fc1ccc(Cl)c(Cl)c1O[C@H](C1CC1)[C@H]1CCNC1 [Example 16-60, (S)-3-[(R)cyclopropyl-(2,3-dichloro-6-fluorophenoxy)methyl]pyrrolidine] | ≤ 10 nM |
| Cc1ccc(F)c(O[C@@H](C2CC2)[C@H]2CCNC2)c1Cl [Example 16-62, (S)-3-[(S)-(2-Chloro-6-fluoro-3-methylphenoxy)cyclopropylmethyl]pyrrolidine] | ≤ 10 nM |
| COc1ccc(F)c(O[C@@H](C2CC2)[C@H]2CCNC2)c1Cl [Example 16-64, (S)-3-[(S)-(2-Chloro-6-fluoro-3-methoxyphenoxy)cyclopropylmethyl]pyrrolidine] | ≤ 10 nM |
| Fc1ccc(Cl)c(F)c1O[C@H](C1CC1)[C@H]1CCNC1 [Example 16-67, (S)-3-[(R)-(3-Chloro-2,6-difluorophenoxy)cyclopropylmethyl]pyrrolidine] | ≤ 10 nM |
| Cc1cc(O[C@@H](C2CC2)[C@H]2CCNC2)c(Cl)cc1Cl [Example 16-72, (S)-3-[(S)cyclopropyl-(2,4-dichloro-5-methylphenoxy)methyl]pyrrolidine] | ≤ 10 nM |

target: T2, hNET (Homo sapiens, UniProt P23975); experiment: fluorescence-based norepinephrine reuptake inhibition assay (Tsuruda et al. 2010; data indicated by an asterisk); assay type: cell-based; parameters: expressed in transfected cells; host or cells: HEK-293; details: norepinephrine reuptake inhibition, fluorescence-based assay (values with asterisk); read-out: NET pIC50 (converted)
T2 sequence (P23975 whole entry): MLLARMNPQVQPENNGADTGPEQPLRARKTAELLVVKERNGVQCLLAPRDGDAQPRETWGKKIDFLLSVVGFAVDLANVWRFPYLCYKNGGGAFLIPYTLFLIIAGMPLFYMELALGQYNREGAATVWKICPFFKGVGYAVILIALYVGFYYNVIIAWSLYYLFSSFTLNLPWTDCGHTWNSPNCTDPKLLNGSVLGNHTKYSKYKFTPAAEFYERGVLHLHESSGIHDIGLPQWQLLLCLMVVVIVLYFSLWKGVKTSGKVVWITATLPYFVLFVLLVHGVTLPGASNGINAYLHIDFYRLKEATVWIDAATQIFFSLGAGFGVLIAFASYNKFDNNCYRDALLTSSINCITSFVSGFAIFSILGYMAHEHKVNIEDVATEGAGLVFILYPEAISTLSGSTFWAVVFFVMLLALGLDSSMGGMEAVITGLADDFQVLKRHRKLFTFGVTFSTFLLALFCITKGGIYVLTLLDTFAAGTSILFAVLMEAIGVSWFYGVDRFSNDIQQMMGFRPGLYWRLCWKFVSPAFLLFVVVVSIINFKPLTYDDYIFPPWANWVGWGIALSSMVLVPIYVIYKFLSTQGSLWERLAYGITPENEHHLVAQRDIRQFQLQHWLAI

| IC50 | SMILES |
| --- | --- |
| ≤ 10 nM | Cc1ccc(O[C@@H](C2CC2)[C@H]2CCNC2)c(F)c1F [Example 16-50, (S)-3-[(S)cyclopropyl-(2,3-difluoro-4-methylphenoxy)methyl]pyrrolidine] |
| ≤ 10 nM | Fc1ccc(O[C@@H](C2CC2)[C@H]2CCNC2)c(F)c1Cl [Example 16-53, (S)-3-[(S)-(3-Chloro-2,4-difluorophenoxy)cyclopropylmethyl]pyrrolidine] |
| ≤ 10 nM | COc1c(F)ccc(O[C@@H](C2CC2)[C@H]2CCNC2)c1F [Example 16-54, (S)-3-[(S)cyclopropyl-(2,4-difluoro-3-methoxyphenoxy)methyl]pyrrolidine] |
| ≤ 316 nM | COc1c(O[C@H](C2CC2)[C@H]2CCNC2)ccc(Cl)c1Cl [Example 16-56, (S)-3-[(R)cyclopropyl-(3,4-dichloro-2-methoxyphenoxy)methyl]pyrrolidine] |
| ≤ 10 nM | Cc1ccc(F)c(O[C@H](C2CC2)[C@H]2CCNC2)c1Cl [Example 16-63, (S)-3-[(R)-(2-Chloro-6-fluoro-3-methylphenoxy)cyclopropylmethyl]pyrrolidine] |
| ≤ 10 nM | Fc1ccc(Cl)c(F)c1O[C@@H](C1CC1)[C@H]1CCNC1 [Example 16-66, (S)-3-[(S)-(3-Chloro-2,6-difluorophenoxy)cyclopropylmethyl]pyrrolidine] |

Continued, molecule first:

| SMILES | IC50 |
| --- | --- |
| Fc1c(Cl)ccc(O[C@@H](C2CC2)[C@H]2CCNC2)c1Cl [Example 16-52, (S)-3-[(S)cyclopropyl-(2,4-dichloro-3-fluorophenoxy)methyl]pyrrolidine] | ≤ 10 nM |
| Fc1ccc(Cl)c(Cl)c1O[C@@H](C1CC1)[C@H]1CCNC1 [Example 16-59, (S)-3-[(S)cyclopropyl-(2,3-dichloro-6-fluorophenoxy)methyl]pyrrolidine] | ≤ 10 nM |
| Fc1ccc(Cl)c(Cl)c1O[C@H](C1CC1)[C@H]1CCNC1 [Example 16-60, (S)-3-[(R)cyclopropyl-(2,3-dichloro-6-fluorophenoxy)methyl]pyrrolidine] | ≤ 10 nM |
| Cc1ccc(F)c(O[C@@H](C2CC2)[C@H]2CCNC2)c1Cl [Example 16-62, (S)-3-[(S)-(2-Chloro-6-fluoro-3-methylphenoxy)cyclopropylmethyl]pyrrolidine] | ≤ 10 nM |
| COc1ccc(F)c(O[C@@H](C2CC2)[C@H]2CCNC2)c1Cl [Example 16-64, (S)-3-[(S)-(2-Chloro-6-fluoro-3-methoxyphenoxy)cyclopropylmethyl]pyrrolidine] | ≤ 10 nM |
| Fc1ccc(Cl)c(F)c1O[C@H](C1CC1)[C@H]1CCNC1 [Example 16-67, (S)-3-[(R)-(3-Chloro-2,6-difluorophenoxy)cyclopropylmethyl]pyrrolidine] | ≤ 10 nM |
| Cc1cc(O[C@@H](C2CC2)[C@H]2CCNC2)c(Cl)cc1Cl [Example 16-72, (S)-3-[(S)cyclopropyl-(2,4-dichloro-5-methylphenoxy)methyl]pyrrolidine] | ≤ 100 nM |

target: T1, hSERT; experiment: fluorescence-based serotonin reuptake inhibition assay (Tsuruda et al. 2010; data indicated by an asterisk); assay type: cell-based; parameters: expressed in transfected cells; host or cells: HEK-293; details: fluorescence-based assay (values with asterisk), read-out: SERT pIC50 (converted)

| IC50 | SMILES |
| --- | --- |
| ≤ 10 nM | Cc1ccc(O[C@@H](C2CC2)[C@H]2CCNC2)c(F)c1F [Example 16-50, (S)-3-[(S)cyclopropyl-(2,3-difluoro-4-methylphenoxy)methyl]pyrrolidine] |
| ≤ 10 nM | Fc1ccc(O[C@@H](C2CC2)[C@H]2CCNC2)c(F)c1Cl [Example 16-53, (S)-3-[(S)-(3-Chloro-2,4-difluorophenoxy)cyclopropylmethyl]pyrrolidine] |
| ≤ 10 nM | COc1c(F)ccc(O[C@@H](C2CC2)[C@H]2CCNC2)c1F [Example 16-54, (S)-3-[(S)cyclopropyl-(2,4-difluoro-3-methoxyphenoxy)methyl]pyrrolidine] |
| ≤ 10 nM | COc1c(O[C@H](C2CC2)[C@H]2CCNC2)ccc(Cl)c1Cl [Example 16-56, (S)-3-[(R)cyclopropyl-(3,4-dichloro-2-methoxyphenoxy)methyl]pyrrolidine] |
| ≤ 100 nM | Cc1ccc(F)c(O[C@H](C2CC2)[C@H]2CCNC2)c1Cl [Example 16-63, (S)-3-[(R)-(2-Chloro-6-fluoro-3-methylphenoxy)cyclopropylmethyl]pyrrolidine] |
| ≤ 100 nM | Fc1ccc(Cl)c(F)c1O[C@@H](C1CC1)[C@H]1CCNC1 [Example 16-66, (S)-3-[(S)-(3-Chloro-2,6-difluorophenoxy)cyclopropylmethyl]pyrrolidine] |

Second part, the molecule before the results:

| SMILES | IC50 |
| --- | --- |
| Fc1c(Cl)ccc(O[C@@H](C2CC2)[C@H]2CCNC2)c1Cl [Example 16-52, (S)-3-[(S)cyclopropyl-(2,4-dichloro-3-fluorophenoxy)methyl]pyrrolidine] | ≤ 10 nM |
| Fc1ccc(Cl)c(Cl)c1O[C@@H](C1CC1)[C@H]1CCNC1 [Example 16-59, (S)-3-[(S)cyclopropyl-(2,3-dichloro-6-fluorophenoxy)methyl]pyrrolidine] | ≤ 10 nM |
| Fc1ccc(Cl)c(Cl)c1O[C@H](C1CC1)[C@H]1CCNC1 [Example 16-60, (S)-3-[(R)cyclopropyl-(2,3-dichloro-6-fluorophenoxy)methyl]pyrrolidine] | ≤ 10 nM |
| Cc1ccc(F)c(O[C@@H](C2CC2)[C@H]2CCNC2)c1Cl [Example 16-62, (S)-3-[(S)-(2-Chloro-6-fluoro-3-methylphenoxy)cyclopropylmethyl]pyrrolidine] | ≤ 100 nM |
| COc1ccc(F)c(O[C@@H](C2CC2)[C@H]2CCNC2)c1Cl [Example 16-64, (S)-3-[(S)-(2-Chloro-6-fluoro-3-methoxyphenoxy)cyclopropylmethyl]pyrrolidine] | ≤ 10 nM |
| Fc1ccc(Cl)c(F)c1O[C@H](C1CC1)[C@H]1CCNC1 [Example 16-67, (S)-3-[(R)-(3-Chloro-2,6-difluorophenoxy)cyclopropylmethyl]pyrrolidine] | ≤ 100 nM |
| Cc1cc(O[C@@H](C2CC2)[C@H]2CCNC2)c(Cl)cc1Cl [Example 16-72, (S)-3-[(S)cyclopropyl-(2,4-dichloro-5-methylphenoxy)methyl]pyrrolidine] | ≤ 10 nM |

target: T2, hNET; experiment: hNET membrane radioligand binding assay (3H-nisoxetine), Assay 1; details: not given

| Ki | SMILES |
| --- | --- |
| ≤ 10 nM | Cc1ccc(O[C@@H](C2CC2)[C@H]2CCNC2)c(F)c1F [Example 16-50, (S)-3-[(S)cyclopropyl-(2,3-difluoro-4-methylphenoxy)methyl]pyrrolidine] |
| ≤ 10 nM | Fc1ccc(O[C@@H](C2CC2)[C@H]2CCNC2)c(F)c1Cl [Example 16-53, (S)-3-[(S)-(3-Chloro-2,4-difluorophenoxy)cyclopropylmethyl]pyrrolidine] |
| ≤ 10 nM | COc1c(F)ccc(O[C@@H](C2CC2)[C@H]2CCNC2)c1F [Example 16-54, (S)-3-[(S)cyclopropyl-(2,4-difluoro-3-methoxyphenoxy)methyl]pyrrolidine] |
| ≤ 316 nM | COc1c(O[C@H](C2CC2)[C@H]2CCNC2)ccc(Cl)c1Cl [Example 16-56, (S)-3-[(R)cyclopropyl-(3,4-dichloro-2-methoxyphenoxy)methyl]pyrrolidine] |
| ≤ 10 nM | Cc1ccc(F)c(O[C@H](C2CC2)[C@H]2CCNC2)c1Cl [Example 16-63, (S)-3-[(R)-(2-Chloro-6-fluoro-3-methylphenoxy)cyclopropylmethyl]pyrrolidine] |
| ≤ 10 nM | Fc1ccc(Cl)c(F)c1O[C@@H](C1CC1)[C@H]1CCNC1 [Example 16-66, (S)-3-[(S)-(3-Chloro-2,6-difluorophenoxy)cyclopropylmethyl]pyrrolidine] |

Second part, the molecule before the results:

| SMILES | Ki |
| --- | --- |
| Fc1c(Cl)ccc(O[C@@H](C2CC2)[C@H]2CCNC2)c1Cl [Example 16-52, (S)-3-[(S)cyclopropyl-(2,4-dichloro-3-fluorophenoxy)methyl]pyrrolidine] | ≤ 10 nM |
| Fc1ccc(Cl)c(Cl)c1O[C@@H](C1CC1)[C@H]1CCNC1 [Example 16-59, (S)-3-[(S)cyclopropyl-(2,3-dichloro-6-fluorophenoxy)methyl]pyrrolidine] | ≤ 10 nM |
| Fc1ccc(Cl)c(Cl)c1O[C@H](C1CC1)[C@H]1CCNC1 [Example 16-60, (S)-3-[(R)cyclopropyl-(2,3-dichloro-6-fluorophenoxy)methyl]pyrrolidine] | ≤ 10 nM |
| Cc1ccc(F)c(O[C@@H](C2CC2)[C@H]2CCNC2)c1Cl [Example 16-62, (S)-3-[(S)-(2-Chloro-6-fluoro-3-methylphenoxy)cyclopropylmethyl]pyrrolidine] | ≤ 10 nM |
| COc1ccc(F)c(O[C@@H](C2CC2)[C@H]2CCNC2)c1Cl [Example 16-64, (S)-3-[(S)-(2-Chloro-6-fluoro-3-methoxyphenoxy)cyclopropylmethyl]pyrrolidine] | ≤ 10 nM |
| Fc1ccc(Cl)c(F)c1O[C@H](C1CC1)[C@H]1CCNC1 [Example 16-67, (S)-3-[(R)-(3-Chloro-2,6-difluorophenoxy)cyclopropylmethyl]pyrrolidine] | ≤ 10 nM |
| Cc1cc(O[C@@H](C2CC2)[C@H]2CCNC2)c(Cl)cc1Cl [Example 16-72, (S)-3-[(S)cyclopropyl-(2,4-dichloro-5-methylphenoxy)methyl]pyrrolidine] | ≤ 100 nM |
